1 molecule from patent US5872124A, “Treatment of diseases of the central nervous system using uric acid as a scavenger of peroxynitrite” (Thomas Jefferson University, priority 1996, dated 1999) can be followed below.

Holding throughout (type): in vivo
One experiment relates to nitric oxide (NO). The experiment is described as follows: NO level in spinal cord of Lewis rats with adoptive transfer EAE (spin trapping, EPR). On the procedure: (§1) In FIG. 1, EAE was elicited in 11 week old female Lewis rats by the adoptive transfer of 20×10^6 cells of the MBP-specific line 5HGBP.G5 activated by stimulation with MBP and syngeneic APC 48 hours previously and NO levels measured 5 days after transfer. In SWXJ-14 mice, EAE was triggered by two subcutaneous immunizations (d.0 and 7) with 100 μg PLP in CFA over two injection sites, and NO levels measured 18 days later. Results expressed represent the mean values obtained from a minimum of 4 animals. Peak severity of the symptoms of EAE ranged from 2-3 for the rats and 4-5 for the mice. NO was semi-quantitated using spin trapping with DETC and EPR-spectroscopy as described previously.
(§2) Rats were injected i.v. with 20×10^6 MBP-specific CD4 T cells activated in vitro. Two days later the animals were treated with a single dose of either PTIO (20 mg) or a mixture of PTIO (20 mg), indomethacin (1 mg), and allopurinol (13 mg). Treatment was continued on a daily basis until day 4 and animals were sacrificed for NO measurement the following day.

The test system of experiment [1] is experimental allergic encephalomyelitis (EAE), MBP-specific T cell transfer. The experiment is described as follows: Clinical severity of adoptive transfer EAE in Lewis rats.
Source text: Induction of EAE in rats by adoptive transfer of MBP-specific T cells or in SJL or SWXJ-14 mice by immunization with MBP or PLP 139-151, a peptide derived from […] [8], results in variable disease. We have scored the clinical systems of EAE as tabulated below.
______________________________________
Severity scores and symptoms of Experimental Allergic
1 piloerection, tail weakness
3 hind limb weakness/paralysis
4 hind and forelimb paralysis
as §1, §2

Experiment [2] concerns experimental allergic encephalomyelitis (EAE), PLP immunization. Nature of the experiment: Survival of SWXJ-14 mice with EAE. As to the method:
FIG. 14. Comparison of the survival of SWXJ-14 mice with EAE treated with PTIO and uric acid. SWXJ-mice were immunized with PLP in CFA as described for FIG. 12 and treated once daily with a 2 mg dose of uric acid or PTIO i.p. from day 5 to day 13, followed by two daily doses on day 14 and three daily doses thereafterward.
To more directly compare the action of PTIO and uric acid in EAE we have administered each of these agents in parallel to PLP-immunized SWXJ-14 mice. In these experiments the mice were immunized with PLP and treated with increasing doses of PTIO or uric acid beginning at day 5 after immunization.

As for `CC1(C)N([O])C(c2ccccc2)=[N+]([O-])C1(C)C` [PTIO, 2-phenyl-4,4,5,5-tetramethylimidazoline-1-oxyl-3-oxide], the NO-spinal cord entry in the experiment with nitric oxide (NO) (Rat-adoptive transfer EAE, Table 2) was “undetectable”. The “Levels of NO in spinal cord” value in the experiment with nitric oxide (NO) (rats, adoptive transfer EAE, i.p. administration) is “reduce levels of NO detected in spinal cord”. Besides, the “Symptoms of disease (FIG. 6)” value in experiment [1] (PTIO 20 mg daily from day 2 to day 4 after T cell transfer, alone or in mix) was “little or no symptoms of disease”. The same molecule registered a Clinical severity in experiment [1] (Rat-adoptive transfer EAE, severity score 1-5, Table 2) of 0.8. Further, the “Duration of alleviation of clinical symptoms between doses” value in experiment [1] (animals subjected to stimuli that induce EAE (species not specified)) was “at least 24 hours”. Besides, the “Clinical symptoms of EAE” value in experiment [1] (rats, MBP-specific T cell transfer, i.p. administration) is “forestall the appearance of clinical symptoms of EAE”. In addition, the “Improvement in clinical signs of surviving mice (FIG. 14)” value in experiment [2] (at termination of the experiment) was “a number were actually beginning to show some improvement in the clinical signs of their disease”. In experiment [2] (several days after day 18, 2 mg i.p. once daily day 5-13, two doses day 14, then three daily), the “Mice still alive (FIG. 14)” value was found to be 40%.
